# Measurements: the supplement of paper PMC10307832
# Tests used:
# Test in all cases: relative viability (nuclei count vs DMSO), 5 days (fraction); higher = more cells survive
# [1] = compound: Cc1ccc(C(=O)Nc2cccc(C(F)(F)F)c2)cc1Nc1cncc(C(N)=O)c1 [ALW-II-49-7] + CC(=O)Nc1cccc(-n2c(=O)n(C3CC3)c(=O)c3c(Nc4ccc(I)cc4F)n(C)c(=O)c(C)c32)c1 [Trametinib] (partner 0.02 µM)
# Summary of the method: (§1)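 After 5 days of treatment, lung cancer cells in 1536-well plates were fixed and stained in a single step (final 0.05% Triton X-100, 1% formaldehyde, 1 ug/ml Hoechst) and their nuclei counted on 4× images. Treatment had been applied by pin tool the day after seeding as one drug alone or as a fixed anchor-drug dose with five library-drug doses (not always all listed) in √10 steps. Relative viability is the nuclei count of treated wells divided by that of vehicle wells, and values are medians of duplicate plates.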
# [2] = compound: Cc1ccc(C(=O)Nc2cccc(C(F)(F)F)c2)cc1Nc1cncc(C(N)=O)c1 [ALW-II-49-7] + NC(=O)Nc1cc(-c2cccc(F)c2)sc1C(=O)N[C@H]1CCCNC1 [AZD7762] (partner 0.2 µM)
# Summary of the method: as §1
# [3] = compound: C1CC1C(=O)NC2=NNC3=C2C=CC(=C3)C4=CC(=CC=C4)C(=O)NC5CC5 [XMD13-2] + Cc1nc(NC(=O)N2CCC[C@H]2C(N)=O)sc1-c1ccnc(C(C)(C)C(F)(F)F)c1 [Alpelisib] (partner 2 µM)
# Summary of the method: as §1
# [4] = compound: Cc1ccc(C(=O)Nc2cccc(C(F)(F)F)c2)cc1Nc1cncc(C(N)=O)c1 [ALW-II-49-7]
# Summary of the method: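 Following overnight incubation at 37 °C, lung cancer cell lines in 1536-well plates were pinned with five library-drug doses (not always all listed) in √10 steps on vehicle-anchored plates. The cells then spent 5 days without medium change before a combined fix, permeabilisation and Hoechst stain, 4× imaging and MetaXpress nuclear counts. Viability is the treated-to-vehicle ratio of nuclei, taken as the median across plates. Only plates with control CV below 25% and at least one doubling passed.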
Cell Line,relative viability ([1]; first compound 0.08 µM),relative viability ([1]; first compound 0.253 µM),relative viability ([1]; first compound 0.8 µM),relative viability ([1]; first compound 2.53 µM),relative viability ([1]; first compound 8 µM),relative viability ([2]; first compound 0.08 µM),relative viability ([2]; first compound 0.253 µM),relative viability ([2]; first compound 0.8 µM),relative viability ([2]; first compound 2.53 µM),relative viability ([2]; first compound 8 µM),relative viability ([3]; first compound 0.05 µM),relative viability ([3]; first compound 0.1581 µM),relative viability ([3]; first compound 0.5 µM),relative viability ([3]; first compound 1.581 µM),relative viability ([3]; first compound 5 µM),relative viability ([4]; 0.08 µM),relative viability ([4]; 0.253 µM),relative viability ([4]; 0.8 µM),relative viability ([4]; 2.53 µM),relative viability ([4]; 8 µM)
201T,0.718,0.791,0.691,0.715,0.777,0.661,0.604,0.745,0.574,0.552,1.07,1.03,0.945,1,1.07,0.979,1.04,0.915,1.02,0.838
A549,–,–,–,–,–,–,–,–,–,–,1.05,0.709,0.812,0.714,0.952,1.08,0.966,0.891,1.02,0.947
A-427,0.733,0.777,0.761,0.691,0.585,0.714,0.814,0.634,0.759,0.482,1.19,1.05,1.02,0.949,0.965,0.962,1.02,0.952,1.01,0.93
ABC-1,–,–,–,–,–,0.914,0.563,0.915,–,0.668,1.29,1.15,0.893,0.928,0.998,0.938,0.999,0.923,0.973,0.941
BEN,1.08,1.03,1.05,0.578,1.02,0.723,0.769,0.666,0.799,0.765,1.29,1.03,1,1.03,1.11,1.04,1.01,0.728,0.825,0.902
CAL-12T,0.294,0.336,0.346,0.307,0.288,0.5,0.641,0.744,0.349,0.588,1.31,1.18,1.24,1.11,1.4,0.952,0.96,1.03,1.02,0.928
COR-L23,0.576,0.514,0.648,0.566,0.43,–,–,–,–,–,0.931,0.77,0.951,0.741,0.805,1.05,0.969,0.904,0.892,1.02
COR-L 105,0.443,0.401,0.43,0.453,0.396,–,–,–,–,–,1.06,1.36,0.984,0.964,0.945,0.822,1.05,0.968,0.942,0.893
Calu-6,–,–,–,–,–,–,–,–,–,–,1.02,0.948,1.04,0.923,0.757,0.952,1.03,0.947,0.891,0.869
ChaGo-K-1,0.889,0.939,0.919,0.847,0.85,0.94,0.996,0.882,0.768,0.807,–,–,–,–,–,1.03,0.96,0.909,0.974,1.01
EBC-1,–,–,–,–,–,–,–,–,–,–,0.999,0.801,0.907,0.738,0.483,0.93,0.93,0.79,1,0.697
EKVX,0.266,0.347,0.482,0.317,0.298,0.665,0.619,0.821,0.574,0.646,1.12,0.882,0.92,0.931,0.937,1.06,0.953,0.968,0.91,0.974
EMC-BAC-2,0.966,0.92,0.998,0.857,0.755,1.09,1.21,0.916,1.11,0.896,0.844,0.748,0.752,0.703,0.57,1.02,0.966,0.888,0.902,0.758
EPLC-272H,0.245,0.27,0.281,0.305,0.239,0.169,0.251,0.278,0.248,0.198,1.03,0.856,1.07,0.759,0.463,1.01,0.702,0.945,0.977,0.86
H3255,0.856,0.52,0.681,0.62,0.455,0.938,1.06,0.874,0.801,0.574,0.858,0.597,0.658,0.729,0.624,1.12,0.999,1.04,0.904,0.808
HARA,1.02,0.513,0.794,0.64,0.675,0.325,0.28,0.3,0.375,0.347,0.923,0.795,0.943,0.808,0.988,0.87,0.777,0.987,1.17,0.846
HCC-15,0.396,0.4,0.399,0.353,0.387,1.22,1.14,1,1.39,1.25,0.91,0.811,0.911,0.878,0.619,1.04,0.975,0.964,1.08,0.919
HCC-44,1.08,0.994,1.03,1.09,1.26,0.992,1.02,1.03,1.03,0.964,0.995,0.843,0.934,0.82,0.745,0.971,1.06,0.969,1.03,0.957
HCC-78,0.867,0.702,0.633,0.572,0.78,0.614,0.693,0.684,0.611,0.713,0.392,0.338,0.327,0.304,0.352,0.972,0.938,0.842,0.934,0.933
HCC-366,0.33,0.361,0.404,0.275,0.288,0.264,0.259,0.24,0.245,0.203,0.61,0.31,0.334,0.446,0.443,1.03,1.05,1.09,1.04,0.855

Cell Line,relative viability ([1]; first compound 0.08 µM),relative viability ([1]; first compound 0.253 µM),relative viability ([1]; first compound 0.8 µM),relative viability ([1]; first compound 2.53 µM),relative viability ([1]; first compound 8 µM),relative viability ([2]; first compound 0.08 µM),relative viability ([2]; first compound 0.253 µM),relative viability ([2]; first compound 0.8 µM),relative viability ([2]; first compound 2.53 µM),relative viability ([2]; first compound 8 µM),relative viability ([3]; first compound 0.05 µM),relative viability ([3]; first compound 0.1581 µM),relative viability ([3]; first compound 0.5 µM),relative viability ([3]; first compound 1.581 µM),relative viability ([3]; first compound 5 µM),relative viability ([4]; 0.08 µM),relative viability ([4]; 0.253 µM),relative viability ([4]; 0.8 µM),relative viability ([4]; 2.53 µM),relative viability ([4]; 8 µM)
HCC-827,0.534,0.526,0.525,0.475,0.462,0.208,0.241,0.187,0.183,0.19,1.01,0.917,1.01,0.947,0.528,1.02,1.03,1.02,1.02,1.02
HOP-62,0.389,0.364,0.402,0.452,0.465,0.386,0.455,0.648,0.619,0.586,0.848,0.516,1.03,1,0.664,1.1,1.03,0.941,0.82,0.786
IA-LM,–,–,–,–,–,–,–,–,–,–,0.86,0.962,0.766,0.767,0.901,0.939,0.74,0.744,0.504,0.305
NCI-H520,0.62,0.661,0.53,0.552,0.519,–,–,–,–,–,0.921,0.954,0.967,0.861,0.49,1.04,0.987,0.987,0.94,0.964
NCI-H522,0.883,0.665,0.867,0.82,0.853,0.787,0.842,0.754,0.83,0.934,–,–,–,–,–,0.968,0.938,0.994,1.2,1.03
NCI-H661,0.529,0.606,0.521,0.567,0.53,–,–,–,–,–,0.751,0.854,0.506,0.4,0.448,1.04,0.936,0.927,0.975,0.901
NCI-H1299,–,–,–,–,–,–,–,–,–,–,1.08,1.08,1.09,1.08,1.09,1.05,1.05,0.938,0.921,0.843
NCI-H1563,–,–,–,–,–,–,–,–,–,–,1.02,1,0.941,0.894,0.985,0.962,0.993,0.957,0.941,0.887
NCI-H1623,–,–,–,–,–,–,–,–,–,–,–,–,–,–,–,0.934,0.903,0.947,0.967,0.91
NCI-H1648,0.522,0.317,0.462,0.347,0.449,0.62,0.697,0.74,0.678,0.618,–,–,–,–,–,0.633,0.839,0.676,0.683,0.797
NCI-H1650,0.438,0.688,0.557,0.666,0.78,–,–,–,–,–,–,–,–,–,–,0.854,0.789,0.836,0.985,0.985
NCI-H1703,–,–,–,–,–,0.124,0.132,0.116,–,0.127,0.356,0.405,0.292,0.279,0.406,0.982,0.981,0.734,0.429,0.434
NCI-H2009,0.247,0.32,0.299,0.341,0.266,–,–,–,–,–,1.23,1.14,1.22,1.15,1.23,0.967,1.04,0.93,0.844,0.709
NCI-H2023,0.468,0.557,0.69,0.503,0.53,–,–,–,–,–,0.661,0.618,0.52,0.53,0.617,0.965,0.963,0.995,0.96,0.911
NCI-H2228,0.413,0.408,0.406,0.521,0.373,–,–,–,–,–,0.768,0.716,0.771,0.772,0.655,1.09,0.783,0.735,0.904,0.85
NCI-H2342,0.709,0.817,0.828,0.69,0.786,0.506,0.498,0.419,0.408,0.484,–,–,–,–,–,0.866,1.04,0.98,0.925,0.951
SK-LU-1,0.569,0.571,0.486,0.408,0.442,–,–,–,–,–,1.3,1.09,1.27,0.945,0.6,1.04,1.11,1.07,0.769,0.746
SK-MES-1,0.573,0.628,0.562,0.6,0.447,–,–,–,–,–,0.935,0.922,0.869,0.876,1.04,0.957,0.97,0.963,0.851,0.742
SW 900,0.864,0.869,–,0.727,0.874,0.616,0.485,–,0.554,0.542,–,–,–,–,–,0.826,0.975,0.736,1.03,0.622
SW 1573,0.561,0.556,0.611,0.637,0.491,–,–,–,–,–,1.03,0.711,1.01,0.676,0.666,0.976,1.12,1.04,1.05,0.938
